{"source": "patent US9211340B2", "about": "“Means and methods of enhancing delivery to biological systems” (priority 2006, dated 2015)", "key": {"SCF": {"test_system": "SCF", "assay": "SCF transport to the cell surface (SCF staining)", "assay_type": "cell-based", "details": "100 μM peptide, 16 hours; FIG. 5", "procedure": "FIG. 5: Arginine-ester peptide delivery and inhibition of SCF transport to the cell surface (16 hours). Left: No peptide; normal SCF membrane staining.\nCos-7 cells were plated overnight on glass coverslips in 10% serum containing DMEM. For the analysis, we suspended the peptide at 1 mM in PBS (phosphate buffered saline) which was diluted to final concentration in full medium. We washed the cells after 15 or 30 minutes and washed once with PBS and fixed with paraformaldehyed (4%) for 10 minutes and took images in PBS."}, "SCF-reporter construct": {"test_system": "SCF-reporter construct", "assay": "ER-to-Golgi transport of SCF-reporter construct (Golgi-staining of cells)", "assay_type": "cell-based", "details": "2-hours pretreatment and 1-hour ER-to Golgi transport; FIG. 4"}}, "note": "No end group written: not given here.", "data": [{"substance": "Arginine-ester peptide: 20-mer SCF peptide (SEQ ID NO: 1) with glutamate carboxylates esterified with a guanidinium alkanol (NEEDNEISMLQEKEREFQEV; also: glutamate carboxylates esterified with a guanidinium alkanol (places and alkanol not given here); listed as Homo sapiens)", "values": [{"measurement": "inhibition of SCF transport to the cell surface (SCF staining)", "setting": "SCF", "result": "shift to intracellular SCF staining"}, {"measurement": "% of cells exhibiting Golgi-staining of reporter construct (export of SCF-reporter construct)", "setting": "SCF-reporter construct", "result": "block export of a SCF-reporter construct"}]}]}
